Measured values from patent US20210292296A1, “1,2,4-Trioxane compounds and compositions comprising the same for use in the treatment of COVID-19” (priority 2020, published 2021).

Tests used:
[1] = tested on: SARS-CoV-2; assay: Pretreatment screening, SARS-CoV-2 plaque numbers on Vero E6 cells; format: cell-based
[2] = Aqueous stability of artemisinin in presence of additives (1H NMR); format: physicochemical; conditions: 93° C. for 90 minutes
Protocol: Two solvents were tested, tap water and premade black coffee, and glucose (1 equivalent) was tested as a reductant. All mixtures were heated to 93° C. for 90 minutes in 10 mL glass vials open to the atmosphere. Halfway through heating, 1-2 mL of tap water was added to compensate for evaporation. Following heating, 2 mL ethyl acetate was added, and the biphasic solution was dried using a rotary evaporator with water bath at 40° C. The flask was further dried for three hours under high vacuum. All samples were dissolved in CDCl3 containing 0.5 equivalents of an internal standard (1,2,4,5-tetramethylbenzene) and ^1H NMR performed.

[3] = tested on: SARS-CoV-2; assay: SARS-CoV-2 induced cytopathic effect (CPE) in Vero E6 cells, MTS method; format: cell-based; conditions: 72 h

SMILES: C[C@@H]1CC[C@H]2[C@@H](C)C(=O)O[C@@H]3O[C@@]4(C)CC[C@@H]1[C@]32OO4 [artemisinin]
- # of Plaques ([1]; pretreatment 15 min, dilution 100): 78
- # of Plaques ([1]; pretreatment 15 min, dilution 1,000): 104
- # of Plaques ([1]; pretreatment 15 min, dilution 10,000): 109
- plaques observed divided by average of negative control multiplied by 100 ([1]; pretreatment 15 min, sample 0.22 μg/mL): 95.63
- plaques observed divided by average of negative control multiplied by 100 ([1]; pretreatment 15 min, sample 2.2 μg/mL): 84.06
- plaques observed divided by average of negative control multiplied by 100 ([1]; pretreatment 15 min, sample 22 μg/mL): 80.21
- plaques observed divided by average of negative control multiplied by 100 ([1]; pretreatment 15 min, sample 220 μg/mL): 60.15
- # of Plaques ([1]; pretreatment 30 min, dilution 100): 88
- # of Plaques ([1]; pretreatment 30 min, dilution 1,000): 100
- # of Plaques ([1]; pretreatment 30 min, dilution 10,000): 102
- plaques observed divided by average of negative control multiplied by 100 ([1]; pretreatment 30 min, sample 0.22 μg/mL): 104.88
- plaques observed divided by average of negative control multiplied by 100 ([1]; pretreatment 30 min, sample 2.2 μg/mL): 78.66
- plaques observed divided by average of negative control multiplied by 100 ([1]; pretreatment 30 min, sample 22 μg/mL): 78.66
- plaques observed divided by average of negative control multiplied by 100 ([1]; pretreatment 30 min, sample 220 μg/mL): 67.87
- # of Plaques ([1]; pretreatment 60 min, dilution 100): 96
- # of Plaques ([1]; pretreatment 60 min, dilution 1,000): 120
- # of Plaques ([1]; pretreatment 60 min, dilution 10,000): 100
- plaques observed divided by average of negative control multiplied by 100 ([1]; pretreatment 60 min, sample 0.22 μg/mL): 95.63
- plaques observed divided by average of negative control multiplied by 100 ([1]; pretreatment 60 min, sample 2.2 μg/mL): 77.12
- plaques observed divided by average of negative control multiplied by 100 ([1]; pretreatment 60 min, sample 22 μg/mL): 92.54
- plaques observed divided by average of negative control multiplied by 100 ([1]; pretreatment 60 min, sample 220 μg/mL): 74.04
- # of Plaques ([1]; pretreatment 120 min, dilution 100): 106
- plaques observed divided by average of negative control multiplied by 100 ([1]; pretreatment 120 min, sample 0.22 μg/mL): 103.34
- plaques observed divided by average of negative control multiplied by 100 ([1]; pretreatment 120 min, sample 2.2 μg/mL): 95.63
- plaques observed divided by average of negative control multiplied by 100 ([1]; pretreatment 120 min, sample 22 μg/mL): 103.34
- plaques observed divided by average of negative control multiplied by 100 ([1]; pretreatment 120 min, sample 220 μg/mL): 81.75
- loss of artemisinin ([2]; premade black coffee + glucose (1 equivalent)): 19%
- degradation of artemisinin ([2]; premade black coffee): 17%
- loss of artemisinin ([2]; tap water + glucose (1 equivalent)): 32%

SMILES: C[C@H]1[C@H](OC(=O)CCC(=O)O)O[C@@H]2O[C@@]3(C)CC[C@H]4[C@H](C)CC[C@@H]1[C@@]24OO3 [artesunate]
- EC50 (inhibition of virus-induced CPE) [3]: sufficiently low
